In the supplement of paper PMC12592484:

How the values were obtained:
Assay in all cases: drug sensitivity score (DSS2, normalised partial AUC of dose-response, 72 h CellTiter-Glo viability) (DSS (dimensionless)); higher = more sensitive (stronger growth inhibition / cytotoxicity); extreme values may be limits of the assay
22Rv1 = system: 22Rv1
Outline: (§1)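 Viability of low-passage primary prostate cancer-associated fibroblasts, PF179T, WPMY-1, LNCaP and 22Rv1 cells was read by CellTiter-Glo 2.0 luminescence 72 h after seeding onto compounds pre-dispensed in 384-well plates at five doses over a 10,000-fold range. Readings were scaled between vehicle and positive-control wells. Sensitivity is reported as a drug sensitivity score from BREEZE, namely a partial area under the fitted logistic curve divided by the log of its upper asymptote, where higher means more sensitive.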

CAF#1 = system: CAF#1 (primary prostate cancer-associated fibroblasts of myCAF-like type)
Outline: as §1

CAF#2 = system: CAF#2 (primary prostate cancer-associated fibroblasts of iCAF-like type)
Outline: as §1

CAF#3 = system: CAF#3 (primary prostate cancer-associated fibroblasts of myCAF-like type)
Outline: as §1

CAF#4 = system: CAF#4 (primary prostate cancer-associated fibroblasts of iCAF-like type)
Outline: as §1

CAF#5 = system: CAF#5 (primary prostate cancer-associated fibroblasts of myCAF-like type)
Outline: as §1

CAF#6 = system: CAF#6 (primary prostate cancer-associated fibroblasts of iCAF-like type)
Outline: as §1

CAF#7 = system: CAF#7 (primary prostate cancer-associated fibroblasts of myCAF-like type)
Outline: as §1

LNCAP = system: LNCAP
Outline: as §1

PF179T = system: PF179T
Outline: as §1

WPMY-1 = system: WPMY-1
Outline: as §1

| SMILES | drug sensitivity score (22Rv1) | drug sensitivity score (CAF#1) | drug sensitivity score (CAF#2) | drug sensitivity score (CAF#3) | drug sensitivity score (CAF#4) | drug sensitivity score (CAF#5) | drug sensitivity score (CAF#6) | drug sensitivity score (CAF#7) | drug sensitivity score (LNCAP) | drug sensitivity score (PF179T) | drug sensitivity score (WPMY-1) |
| --- | --- | --- | --- | --- | --- | --- | --- | --- | --- | --- | --- |
| C[C@@H]1C[C@H]2[C@@H]3CCC4=CC(=O)C=C[C@]4(C)[C@@]3(F)[C@@H](O)C[C@]2(C)[C@@]1(O)C(=O)CO [Dexamethasone] (tested concentration range 1-10000 nM) | 0 | 0 | 0 | 0 | 0 | 0 | 0 | 0.3 | 0 | 0 | 0 |
| Cc1nc(=O)c2cc(CN(C)c3ccc(C(=O)N[C@@H](CCC(=O)O)C(=O)O)s3)ccc2[nH]1 [Raltitrexed] (tested concentration range 0.1-1000 nM) | 0 | 3.3 | 4.4 | 0 | 0.8 | 2.8 | 0.2 | 0 | 11.1 | 0.3 | 14 |
| COC(=O)N[C@@H](C)CNc1nccc(-c2cn(C(C)C)nc2-c2cc(Cl)cc(NS(C)(=O)=O)c2F)n1 [Encorafenib] (tested concentration range 0.1-1000 nM) | 2.3 | 0.6 | 0 | 2 | 0.5 | 0.7 | 0.9 | 1.3 | 2.3 | 0.6 | 0 |
| O=C(c1ccc(F)c(F)c1Nc1ccc(I)cc1F)N1CC(O)([C@@H]2CCCCN2)C1 [Cobimetinib] (tested concentration range 0.1-1000 nM) | 9.6 | 0.5 | 3.9 | 0 | 1.6 | 1.9 | 3.3 | 5.3 | 0 | 2.1 | 4.2 |
| C[C@@]1(C(=O)Nc2ccc(F)nc2)CCCN1c1nc(Nc2cc(C3CC3)n[nH]2)c2cccn2n1 (tested concentration range 1-10000 nM) | 12.4 | 10.4 | 12.2 | 9 | 7.9 | 10.7 | 8.7 | 10.5 | 6.4 | 9.4 | 15.6 |
| C#Cc1cccc(Nc2ncnc3cc(OCCOC)c(OCCOC)cc23)c1 [Erlotinib] (tested concentration range 1-10000 nM) | 1.4 | 3.7 | 3.7 | 1.2 | 4.8 | 4.8 | 0.2 | 1.1 | 4 | 1.4 | 0.5 |
| CCn1c(=O)c(-c2ccc(Cl)cc2Cl)cc2cnc(Nc3ccc(N4CCNCC4)c(F)c3)nc21 [FRAX486] (tested concentration range 0.5-5000 nM) | 1.1 | 12.2 | 14.7 | 9.1 | 9.7 | 11.4 | 9 | 8.9 | 6.3 | 12.4 | 8.6 |
| CCn1c(-c2nonc2N)nc2cnc(Oc3cccc(NC(=O)c4ccc(OCCN5CCOCC5)cc4)c3)cc21 (tested concentration range 1-10000 nM) | 4.7 | 3.2 | 3.3 | 0.2 | 0.6 | 1.2 | 2.8 | 4.7 | 8.1 | 0.9 | 6.8 |
| CO[C@H]1CC[C@H](N2C(=O)CNc3ncc(-c4ccc(C(C)(C)O)nc4)nc32)CC1 [ATG-008] (tested concentration range 1-10000 nM) | 8.9 | 5.7 | 7 | 5.5 | 6.5 | 7.4 | 2.8 | 3.1 | 7.6 | 6.3 | 6.2 |
| CCCCC(=O)OCC(=O)[C@]1(O)Cc2c(O)c3c(c(O)c2[C@@H](O[C@H]2C[C@H](NC(=O)C(F)(F)F)[C@H](O)[C@H](C)O2)C1)C(=O)c1c(OC)cccc1C3=O [Valrubicin] (tested concentration range 0.5-5000 nM) | 14.3 | 8.6 | 9.3 | 8.7 | 4.9 | 8.4 | 9.4 | 11.4 | 20.6 | 9.6 | 14.9 |
| Oc1nc(-c2ccc(C(F)(F)F)cc2)nc2c1CSCC2 [XAV-939] (tested concentration range 1-10000 nM) | 0 | 2.6 | 5.4 | 2.5 | 2.6 | 4.1 | 4 | 4.3 | 2.1 | 2.6 | 0 |
| CCCS(=O)(=O)Nc1ccc(F)c(C(=O)c2c[nH]c3ncc(-c4ccc(Cl)cc4)cc23)c1F [Vemurafenib] (tested concentration range 1-10000 nM) | 3.4 | 4.3 | 5.3 | 4.4 | 3 | 4.7 | 0.8 | 1.6 | 3 | 2.8 | 1.9 |
| COc1cc2ncnc(Nc3ccc(F)c(Cl)c3)c2cc1NC(=O)/C=C/CN1CCCCC1 [Dacomitinib] (tested concentration range 0.1-1000 nM) | 1 | 0.7 | 1 | 0.6 | 1.4 | 0 | 0 | 0 | 1.4 | 0.2 | 1 |
| CNS(=O)(=O)Nc1nccc(Cc2c(C)c3ccc(Oc4ncccn4)cc3oc2=O)c1F (tested concentration range 0.1-1000 nM) | 0.2 | 0 | 0 | 0 | 0 | 0 | 0 | 0 | 1.1 | 0 | 0 |
| Cc1c(N)nc([C@H](CC(N)=O)NC[C@H](N)C(N)=O)nc1C(=O)N[C@H](C(=O)N[C@H](C)[C@@H](O)[C@H](C)C(=O)N[C@H](C(=O)NCCc1nc(-c2nc(C(=O)NCCC[S+](C)C)cs2)cs1)[C@@H](C)O)[C@@H](OC1OC(CO)C(O)C(O)C1OC1OC(CO)C(O)C(OC(N)=O)C1O)c1cnc[nH]1 (stereo not given in full) [Bleomycin] (tested concentration range 1-10000 nM) | 3.7 | 0.6 | 3.9 | 5.7 | 5.7 | 3.2 | 7.7 | 9.7 | 7.5 | 3.3 | 0.4 |
| COc1cc2nccc(Oc3ccc(NC(=O)NC4CC4)c(Cl)c3)c2cc1C(N)=O [Lenvatinib] (tested concentration range 0.2-2500 nM) | 0 | 2.1 | 4.3 | 4.1 | 3 | 0.3 | 3.8 | 5.8 | 1.8 | 0.9 | 0.1 |
| C[C@@H](Oc1cc(-c2cnn(C3CCNCC3)c2)cnc1N)c1c(Cl)ccc(F)c1Cl [Crizotinib] (tested concentration range 0.1-1000 nM) | 0 | 0 | 1.4 | 2.7 | 0 | 1.5 | 2.5 | 0.8 | 0 | 1.4 | 0.5 |
| CNC(=O)c1cc(Oc2ccc(NC(=O)Nc3ccc(Cl)c(C(F)(F)F)c3)c(F)c2)ccn1 [Regorafenib] (tested concentration range 1-10000 nM) | 6 | 2.8 | 3.4 | 3.7 | 2.4 | 3.2 | 1 | 2.7 | 7.2 | 1.9 | 3.8 |
| O=C(O)CCCCC(CCSCc1ccccc1)SCc1ccccc1 (stereo not given) [Devimistat] (tested concentration range 1-10000 nM) | 0 | 0 | 0 | 0 | 0 | 0 | 0 | 0 | 0 | 0 | 0 |
| CC[C@@H]1CN(C(=O)NCC(F)(F)F)C[C@@H]1c1cnc2cnc3[nH]ccc3n12 [Upadacitinib] (tested concentration range 1-10000 nM) | 0 | 0 | 1.3 | 0 | 0.1 | 0.8 | 0 | 0 | 0 | 0 | 0.5 |
| COC(=O)c1ccc2c(c1)NC(=O)/C2=C(\Nc1ccc(N(C)C(=O)CN2CCN(C)CC2)cc1)c1ccccc1 [Nintedanib] (tested concentration range 1-10000 nM) | 8.4 | 5.4 | 8.6 | 9.3 | 7 | 5.5 | 7.7 | 10.5 | 9.2 | 0 | 5.7 |
| O=C1CN2Cc3c(ccc(Cl)c3Cl)N=C2N1 [Anagrelide] (tested concentration range 1-10000 nM) | 0 | 8.4 | 0.6 | 7.2 | 0 | 0.6 | 0 | 8.8 | 0 | 0 | 0 |
| O=C(/C=C\n1cnc(-c2cc(C(F)(F)F)cc(C(F)(F)F)c2)n1)NNc1cnccn1 [Selinexor] (tested concentration range 1-10000 nM) | 30.5 | 16.5 | 21.3 | 9.9 | 17.8 | 14.6 | 11.7 | 11.9 | 26.2 | 16.4 | 27.4 |
| CC/C(=C(\c1ccc(O)cc1)c1ccc(OCCN(C)C)cc1)c1ccccc1 [4-hydroxytamoxifen] (tested concentration range 1-10000 nM) | 6.4 | 3.3 | 5.3 | 1.6 | 6.2 | 3.8 | 1.8 | 1.6 | 4.7 | 3.2 | 7.2 |
| CN1CCN(c2nc(C3=C(c4c[nH]c5ccccc45)C(=O)NC3=O)c3ccccc3n2)CC1 [Sotrastaurin] (tested concentration range 1-10000 nM) | 3.6 | 0 | 2.2 | 0 | 0 | 0 | 0 | 0 | 3.5 | 0 | 1.5 |
